The record followed here is patent US9120804B2, “8-substituted 2-amino-[1,2,4] triazolo [1, 5-A] pyrazines as Syk tryrosine kinase inhibitors and GCN2 serin kinase inhibitors” (Merck Patent GmbH, priority 2012, dated 2015).

In the test the target is T1, SYK (Homo sapiens, UniProt P43405).
T1 construct: 2.5 nM SYK, 400 nM Biotin-Aha-Aha-KEDPDYEWPSAKK
Briefly: SYK flash plate assay (enzyme assay). Type of test: biochemical. The procedure: The kinase assay is performed either as 384-well Flashplate assay (for e.g. Topcount measurement) or as 384-well Image-Flashplate assay (for LEADseeker measurement).
2.5 nM SYK, 400 nM Biotin-Aha-Aha-KEDPDYEWPSAKK
and 10 μM ATP (spiked with 0.3 μCi 33P-ATP/well) are incubated in a total volume of 50 μl (60 mM Hepes, 10 mM MgCl2, 1.2 mM Dithiothreitol, 0.02% Brij35, 0.1% BSA, pH 7.5) with or without test compound for 1 hours at 30° C. The reaction is stopped with 25 μl 200 mM EDTA. After 30 Min at 30° C. the liquid is removed and each well washed thrice with 100 μl 0.9% sodium chloride solution. Non-specific reaction is determined in presence of […] Staurosporine. Radioactivity is measured with Topcount (when using Flashplates) or with LEADseeker (when using Image-Flashplates) respectively. Results (e.g. IC50-values) are calculated with program tools provided by the IT-department (e.g. Symyx Assay Explorer, Genedata Screener). In Vivo Assays CIA
In general, IC50 refers to the concentration that gives 50% inhibition. A high value points to lower potency. As for `CC1(C)OC(C(F)(F)F)Nc2cc(Nc3nc4c(N5CCCCCC5)nccn4n3)ccc21` (stereo not shown) [E126, (8-azepan-1-yl-[1,2,4]triazolo[1,5-a]pyrazin-2-yl)-(4,4-dimethyl-2-trifluoromethyl-1,4-dihydro-2H-benzo[d][1,3]oxazin-7-yl)-amine], the IC50 is less than 100 nM.

In turn, `CC1(C)CCNc2cc(Nc3nc4c(N5CC[C@@]6(CNC(=O)C6)C5)nccn4n3)ccc21` [E101, (R)-7-[2-(4,4-dimethyl-1,2,3,4-tetrahydro-quinolin-7-ylamino)-[1,2,4]triazolo[1,5-a]pyrazin-8-yl]-2,7-diaza-spiro[4.4]nonan-3-one] registered an IC50 of less than 100 nM.

For the molecule `CC1(C)C(=O)Nc2cc(Nc3nc4c(N5C[C@H](O)C[C@H]5c5ccccc5)nccn4n3)ccc21` [E24, 6-[8-((2S,4R)-4-hydroxy-2-phenyl-pyrrolidin-1-yl)-[1,2,4]triazolo[1,5-a]pyrazin-2-ylamino]-3,3-dimethyl-1,3-dihydro-indol-2-one], the half-inhibitory concentration (IC50) fell in the range of 3000 to 50000 nM.

On to `Cn1ncc2cc(-c3nccn4nc(Nc5ccc6c(c5)NC(=O)C6(C)C)nc34)ccc21` [E114], for which the IC50 is less than 100 nM.

For the molecule `CC1(C)C(=O)Nc2cc(Nc3nc4c(-c5cnn(CCO)c5)nccn4n3)ccc21` [E145, 6-{8-[1-(2-hydroxy-ethyl)-1H-pyrazol-4-yl]-[1,2,4]triazolo[1,5-a]pyrazin-2-ylamino)-3,3-dimethyl-1,3-dihydro-indol-2-one], the IC50 is less than 100 nM.

With `CC1(C)C(=O)Nc2cc(Nc3nc4c(N5CCC(O)(C(F)(F)F)CC5)nccn4n3)ccc21` [E70, 6-[8-(4-hydroxy-4-trifluoromethyl-piperidin-1-yl)-[1,2,4]triazolo[1,5-a]pyrazin-2-ylamino]-3,3-dimethyl-1,3-dihydro-indol-2-one], the IC50 is less than 100 nM.

Regarding `CC1(C)C(=O)Nc2cc(Nc3nc4c(N5C[C@@H]6C[C@H]5CN6)nccn4n3)ccc21` [C89, 6-[(1S,4S)-8-(2,5-diaza-bicyclo[2.2.1]hept-2-yl)-[1,2,4]triazolo[1,5-a]pyrazin-2-ylamino]-3,3-dimethyl-1,3-dihydro-indol-2-one], the IC50 fell in the range of 300 to 3000 nM.

For the molecule `COc1ccccc1Nc1nc2c(-c3ccccc3-c3ccccc3)nccn2n1` [C24, (8-Biphenyl-2-yl-[1,2,4]triazolo[1,5-a]pyrazin-2-yl)-(2-methoxy-phenyl)-amine], the IC50 was in the range of 3000 to 50000 nM.

On to `CC1(C)C(=O)Nc2cc(Nc3nc4c(-c5c[nH]c6ccccc56)nccn4n3)ccc21` [E76, 6-[8-(1H-indol-3-yl)-[1,2,4]triazolo[1,5-a]pyrazin-2-ylamino]-3,3-dimethyl-1,3-dihydro-indol-2-one], for which the IC50 was less than 100 nM.

`CC1(C)C(=O)Nc2cc(Nc3nc4c(N5CC6(C5)NC(=O)NC6=O)nccn4n3)ccc21` [C109, 2-[2-(3,3-dimethyl-2-oxo-2,3-dihydro-1H-indol-6-ylamino)-[1,2,4]triazolo[1,5-a]pyrazin-8-yl]-2,5,7-triaza-spiro[3.4]octane-6,8-dione] returned an IC50 of 100 to 300 nM.

The molecule `CC(C)(OC(O)C(F)(F)F)c1ccc(Nc2nc3c(N4CCCCCC4)nccn3n2)cc1N` (stereo not shown) [E127, 1-{1-[2-amino-4-(8-azepan-1-yl-[1,2,4]triazolo[1,5-a]pyrazin-2-ylamino)-phenyl]-1-methyl-ethoxy}-2,2,2-trifluoro-ethanol] returned an IC50 of 300 to 3000 nM.

`COC1=CC2C=CN=C2C=C1Nc1nc2c(N3CCC4(CC3)CNC(=O)O4)nccn2n1` (stereo not shown) [E61, 8-[2-(5-methoxy-3aH-indol-6-ylamino)-[1,2,4]triazolo[1,5-a]pyrazin-8-yl]-1-oxa-3,8-diaza-spiro[4.5]decan-2-one] gave an IC50 of 3000 to 50000 nM.

Molecule `CC1(C)C(=O)Nc2cc(Nc3nc4c(N5CCC6(CC5)CNC(=O)C6)nccn4n3)ccc21` [E63, 8-[2-(3,3-dimethyl-2-oxo-2,3-dihydro-1H-indol-6-ylamino)-[1,2,4]triazolo[1,5-a]pyrazin-8-yl]-2,8-diaza-spiro[4.5]decan-3-one] had an IC50 of less than 100 nM.

For `NS(=O)(=O)c1ccc(Nc2nc3c(-c4ccccc4-c4ccccc4)nccn3n2)cc1` [C15, 4-(8-Biphenyl-2-yl-[1,2,4]triazolo[1,5-a]pyrazin-2-ylamino)-benzenesulfonamide], the IC50 was 3000 to 50000 nM.

With `COc1ccc(Nc2nc3c(-c4ccccc4-c4ccccc4)nccn3n2)cc1` [C1, (8-Biphenyl-2-yl-[1,2,4]triazolo[1,5-a]pyrazin-2-yl)-(4-methoxy-phenyl)-amine], the half-inhibitory concentration (IC50) is 3000 to 50000 nM.

Molecule `CN(CCc1ccccn1)c1nccn2nc(Nc3ccc4c(c3)NC(=O)C4(C)C)nc12` [E90, 3,3-dimethyl-6-{8-[methyl-(2-pyridin-2-yl-ethyl)-amino]-[1,2,4]triazolo[1,5-a]pyrazin-2-ylamino}-1,3-dihydro-indol-2-one] gave a 50% inhibitory concentration (IC50) of 300 to 3000 nM.

In turn, `CC1(C)C(=O)Nc2cc(Nc3nc4c(N5CCC(C(N)=O)C5)nccn4n3)ccc21` (stereo not shown) [E3, 1-[2-(3,3-dimethyl-2-oxo-2,3-dihydro-1H-indol-6-ylamino)-[1,2,4]triazolo[1,5-a]pyrazin-8-yl]-pyrrolidine-3-carboxylic acid amide] registered an IC50 of less than 100 nM.

For `CC1(C)C(=O)Nc2cc(Nc3nc4c(N[C@H]5CC[C@@H](O)CC5)nccn4n3)ccc21` [C75, cis-6-[8-(4-hydroxy-cyclohexylamino)-[1,2,4]triazolo[1,5-a]pyrazin-2-ylamino]-3,3-dimethyl-1,3-dihydro-indol-2-one], the IC50 was less than 100 nM.

In turn, `CC1(C)C(=O)Nc2cc(Nc3nc4c(N5CCC6(CCC(=O)N6)CC5)nccn4n3)ccc21` [E35, 8-[2-(3,3-dimethyl-2-oxo-2,3-dihydro-1H-indol-6-ylamino)-[1,2,4]triazolo[1,5-a]pyrazin-8-yl]-1,8-diaza-spiro[4.5]decan-2-one] yielded an IC50 of less than 100 nM.

For the molecule `CC1(C)C(=O)Nc2cc(Nc3nc4c(N5CC6CCC(C5)O6)nccn4n3)ccc21` [E67, 3,3-dimethyl-6-[8-(8-oxa-3-aza-bicyclo[3.2.1]oct-3-yl)-[1,2,4]triazolo[1,5-a]pyrazin-2-ylamino]-1,3-dihydro-indol-2-one], the concentration for half-maximal inhibition (IC50) was less than 100 nM.

As to `CC1(C)C(=O)Nc2cc(Nc3nc4c(N5CCC6(CNC(=O)C6)C5)nccn4n3)ccc21` (stereo not shown) [E20, 3,3-dimethyl-6-[8-(8-oxo-2,7-diaza-spiro[4.4]non-2-yl)-[1,2,4]triazolo[1,5-a]pyrazin-2-ylamino]-1,3-dihydro-indol-2-one], the IC50 was less than 100 nM.

Consider `CC1(C)C(=O)Nc2cc(Nc3nc4c(N5CCc6nc(N)ncc6C5)nccn4n3)ccc21` [E56, 6-[8-(2-amino-7,8-dihydro-5H-pyrido[4,3-d]pyrimidin-6-yl)-[1,2,4]triazolo[1,5-a]pyrazin-2-ylamino]-3,3-dimethyl-1,3-dihydro-indol-2-one], for which the 50% inhibitory concentration (IC50) is less than 100 nM.

With `CC1(C)CC(=O)Nc2cc(Nc3nc4c(N5CC[C@]6(CC(=O)NC6=O)C5)nccn4n3)ccc21` [E49, (S)-7-[2-(4,4-dimethyl-2-oxo-1,2,3,4-tetrahydro-quinolin-7-ylamino)-[1,2,4]triazolo[1,5-a]pyrazin-8-yl]-2,7-diaza-spiro[4.4]nonane-1,3-dione], the half-inhibitory concentration (IC50) is less than 100 nM.

Take `CC1(C)C(=O)Nc2cc(Nc3nc4c(-c5cc6n(n5)CCOC6)nccn4n3)ccc21` [E132, 6-[8-(6,7-Dihydro-4H-pyrazolo[5,1-c][1,4]oxazin-2-yl)-[1,2,4]triazolo[1,5-a]pyrazin-2-ylamino]-3,3-dimethyl-1,3-dihydro-indol-2-one]: the IC50 was 300 to 3000 nM.

Regarding `COC(=O)C1CCN(c2nccn3nc(Nc4ccc5c(c4)NC(=O)C5(C)C)nc23)C1` (stereo not shown) [E2, 1-[2-(3,3-dimethyl-2-oxo-2,3-dihydro-1H-indol-6-ylamino)-[1,2,4]triazolo[1,5-a]pyrazin-8-yl]-pyrrolidine-3-carboxylic acid methyl ester], the half-inhibitory concentration (IC50) was less than 100 nM.

For `CC1=NC2(CCN(c3nccn4nc(Nc5ccc6c(c5)NC(=O)C6(C)C)nc34)CC2)C(=O)N1` [E71, 8-[2-(3,3-dimethyl-2-oxo-2,3-dihydro-1H-indol-6-ylamino)-[1,2,4]triazolo[1,5-a]pyrazin-8-yl]-2-methyl-1,3,8-triaza-spiro[4.5]dec-1-en-4-one], the half-inhibitory concentration (IC50) is 100 to 300 nM.

With `CC1(C)C(=O)Nc2cc(Nc3nc4c(N5CCCNCC5)nccn4n3)ccc21` [E68, 6-(8-[1,4]diazepan-1-yl-[1,2,4]triazolo[1,5-a]pyrazin-2-ylamino)-3,3-dimethyl-1,3-dihydro-indol-2-one], the IC50 was less than 100 nM.

The molecule `CC1(C)C(=O)Nc2cc(Nc3nc4c(-c5cnn(C(C)(C)C)c5)nccn4n3)ccc21` [E140, 6-[8-(1-tert-butyl-1H-pyrazol-4-yl)-[1,2,4]triazolo[1,5-a]pyrazin-2-ylamino]-3,3-dimethyl-1,3-dihydro-indol-2-one] displayed an IC50 of less than 100 nM.

As to `CC1(C)C(=O)Nc2cc(Nc3nc4c(N5CCC6(CCNCC6)C5=O)nccn4n3)ccc21` [E141, 2-[2-(3,3-dimethyl-2-oxo-2,3-dihydro-1H-indol-6-ylamino)-[1,2,4]triazolo[1,5-a]pyrazin-8-yl]-2,8-diaza-spiro[4.5]decan-1-one], the IC50 lay within 100 to 300 nM.

Molecule `CS(=O)(=O)Nc1ccc(-c2nccn3nc(Nc4ccc(N5CCOCC5)cc4)nc23)cc1` [C42, N-{4-[2-(4-morpholin-4-yl-phenylamino)-[1,2,4]triazolo[1,5-a]pyrazin-8-yl]-phenyl}-methanesulfonamide] came in with an IC50 of 300 to 3000 nM.

With `CC1(C)C(=O)Nc2cc(Nc3nc4c(N5CCCC5)nccn4n3)ccc21` [E41, 3,3-dimethyl-6-(8-pyrrolidin-1-yl-[1,2,4]triazolo[1,5-a]pyrazin-2-ylamino)-1,3-dihydro-indol-2-one], the IC50 was less than 100 nM.
